TGI and GI50 data for 18 compounds are collected here from PubChem BioAssay (NCI).

Among the test systems are OVCAR-5 ovarian; CCRF-CEM leukemia; RPMI-8226 leukemia; HT29 colon; SR leukemia; LOX IMVI melanoma; SF-295 CNS; T-47D breast; SF-539 CNS; BT-549 breast.
Common to all, as to test: NCI anticancer screen, dose series, 48 h

Several values for one entry are separate records, joined by “and”; a condition that tells them apart may be missing. Identical values can stand only once.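 48-hour exposure; five concentrations; linearly interpolated endpoints. At the GI50, growth is halved. TGI: total growth inhibition.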

As to `Nc1ccccc1C(=O)CCC1C(=O)NC(=S)NC1=O`, the TGI with OVCAR-5 ovarian, in the experiment with CCRF-CEM leukemia, in the experiment on RPMI-8226 leukemia, in the experiment on HT29 colon, in the experiment on SR leukemia and in the experiment on LOX IMVI melanoma was over 100 µM throughout. In addition, the TGI in the experiment with SF-295 CNS, with T-47D breast and in the experiment on SF-539 CNS was over 100 µM each time.

Take `Cc1cc(C)c(-c2noc(-c3ccc(Cl)cc3)c2C2=NCCCN2)c(C)c1`: the TGI in the experiment on OVCAR-5 ovarian is 86 µM; in the experiment on CCRF-CEM leukemia it was 73.9 µM; with RPMI-8226 leukemia it was 45.3 µM; in the experiment on HT29 colon, 32.5 µM; in the experiment with SR leukemia, over 100 µM; in the experiment on LOX IMVI melanoma, 37.1 µM. For the same compound, the TGI worked out at 25.4 µM in the experiment with SF-295 CNS and 30.5 µM in the experiment on SF-539 CNS.

As for `CC(=O)c1cc(C(=O)c2ccc3c(c2)Sc2ccccc2N3)n2ccccc12`, the GI50 in the experiment on OVCAR-5 ovarian was 0.0376 µM and 0.199 µM; with CCRF-CEM leukemia, 0.0033 µM and 0.00332 µM; in the experiment on RPMI-8226 leukemia, 0.00585 µM and 0.00332 µM; in the experiment with HT29 colon, 0.0035 µM and 0.00332 µM; in the experiment with SR leukemia, 0.00459 µM and 0.00332 µM; in the experiment on BT-549 breast it was 0.00773 µM and 0.0262 µM. Also, the GI50 in the experiment on LOX IMVI melanoma is 0.00587 µM and 0.00332 µM; in the experiment on SF-295 CNS it was 0.00284 µM; in the experiment with SF-539 CNS, 0.00278 µM and 0.00332 µM. Moreover, the TGI in the experiment with OVCAR-5 ovarian is over 33.2 µM; in the experiment with CCRF-CEM leukemia it was over 33.2 µM; with RPMI-8226 leukemia, 20.6 µM; with SR leukemia, over 33.2 µM; with BT-549 breast, over 33.2 µM; in the experiment with LOX IMVI melanoma, over 33.2 µM. Besides, the TGI with SF-295 CNS was 0.076 µM; in the experiment with SF-539 CNS, 0.00949 µM and 0.0103 µM.

Turning to `COc1cc(C(=O)c2cnc(-c3cccc4[nH]ccc34)[nH]2)cc(OC)c1OC`, the TGI is over 100 µM in the experiment with OVCAR-5 ovarian; over 100 µM in the experiment on CCRF-CEM leukemia; 24.3 µM in the experiment on RPMI-8226 leukemia; under 0.01 µM with HT29 colon; over 100 µM with SR leukemia; 22 µM in the experiment with BT-549 breast. The TGI in the experiment with LOX IMVI melanoma and with SF-295 CNS was over 100 µM each time. The GI50 was 0.0493 µM and < 0.01 µM in the experiment on HT29 colon; under 0.01 µM in the experiment on SR leukemia; under 0.01 µM with SF-295 CNS; 0.0278 µM and < 0.01 µM in the experiment on SF-539 CNS.

Turning to `O=C1c2ccccc2C2CCC1c1ccccc12` (stereo unspecified), the TGI is over 100 µM in the experiment on OVCAR-5 ovarian; over 100 µM with CCRF-CEM leukemia; 57 µM with RPMI-8226 leukemia; over 100 µM in the experiment on HT29 colon; 58.2 µM with SR leukemia; over 100 µM in the experiment on LOX IMVI melanoma. Besides, the TGI with SF-295 CNS and with SF-539 CNS was over 100 µM throughout.

With `Cn1c2c(c3c(Cl)nncc31)Cc1ccccc1-2`, the GI50 with OVCAR-5 ovarian is 27.4 µM; with CCRF-CEM leukemia it was 15.3 µM; in the experiment with RPMI-8226 leukemia, 18.1 µM; in the experiment on HT29 colon, 16.9 µM; in the experiment on BT-549 breast it was 20.7 µM; in the experiment on LOX IMVI melanoma, 20.9 µM. Also, the GI50 is 17.5 µM in the experiment with SF-295 CNS and 20 µM in the experiment on SF-539 CNS. The TGI in the experiment with OVCAR-5 ovarian was over 100 µM; in the experiment with CCRF-CEM leukemia, over 100 µM; with RPMI-8226 leukemia, over 100 µM; with HT29 colon it was 44.5 µM; with BT-549 breast it was 64.9 µM; in the experiment with LOX IMVI melanoma, over 100 µM. The TGI with SF-295 CNS amounted to 66.7 µM; with SF-539 CNS, 76.1 µM.

For the compound `CCOC(=O)C(C#N)C1=CC(=O)C(=O)c2ccc(O)cc21` (stereo unspecified), the TGI in the experiment with OVCAR-5 ovarian, in the experiment on CCRF-CEM leukemia, in the experiment with RPMI-8226 leukemia, with HT29 colon, in the experiment on SR leukemia and in the experiment on LOX IMVI melanoma was over 100 µM in each case. Besides, the TGI in the experiment on SF-295 CNS, in the experiment with T-47D breast and in the experiment with SF-539 CNS was over 100 µM throughout.

`CC1NC(=O)C2=C1C(=O)NC(=O)C2` (stereo unspecified): the GI50 with OVCAR-5 ovarian, with CCRF-CEM leukemia, in the experiment with RPMI-8226 leukemia, in the experiment with BT-549 breast, in the experiment on LOX IMVI melanoma and with SF-295 CNS was over 100 µM throughout. The GI50 in the experiment with SF-539 CNS was over 100 µM. Also, the TGI with OVCAR-5 ovarian, in the experiment on CCRF-CEM leukemia, in the experiment with RPMI-8226 leukemia, with BT-549 breast, in the experiment with LOX IMVI melanoma and in the experiment with SF-295 CNS was over 100 µM in each case. This compound also had a TGI in the experiment with SF-539 CNS of over 100 µM.

Take `O=C1O/C(=C/c2ccccc2)C(c2ccccc2)=C1O`: the TGI with OVCAR-5 ovarian was over 100 µM; with CCRF-CEM leukemia it was over 100 µM; in the experiment with RPMI-8226 leukemia, 83.3 µM; in the experiment with HT29 colon, over 100 µM; with LOX IMVI melanoma, over 100 µM; in the experiment with SF-295 CNS it was over 100 µM. Also, the TGI with T-47D breast was 74.2 µM; with SF-539 CNS, over 100 µM.

As for `COC(=O)C1C(=O)O[C@@H](c2cc(OC)c(OC)cc2OC)C1C(=O)OC` (mixture of isomers), the TGI in the experiment on OVCAR-5 ovarian, in the experiment on CCRF-CEM leukemia, with RPMI-8226 leukemia, with HT29 colon, in the experiment on SR leukemia and with LOX IMVI melanoma was over 100 µM throughout. The TGI with SF-295 CNS and in the experiment with SF-539 CNS was over 100 µM in each case.

Regarding `O=C(c1ccc(Cl)cc1)C(O)c1ccc(Cl)cc1` (stereo unspecified), the TGI with OVCAR-5 ovarian, with CCRF-CEM leukemia, in the experiment on RPMI-8226 leukemia, in the experiment with HT29 colon, in the experiment on SR leukemia and in the experiment on BT-549 breast was over 100 µM in each case. The TGI in the experiment on LOX IMVI melanoma, in the experiment on SF-295 CNS and with SF-539 CNS was over 100 µM throughout.

For the compound `Cn1c2c(c3ccccc31)CCN1C(=O)CCC21` (stereo unspecified), the TGI in the experiment on OVCAR-5 ovarian, in the experiment on CCRF-CEM leukemia, in the experiment on RPMI-8226 leukemia, in the experiment on HT29 colon, with SR leukemia and in the experiment with LOX IMVI melanoma was over 10 µM in each case. The TGI in the experiment on SF-295 CNS, in the experiment with T-47D breast and in the experiment with SF-539 CNS was over 10 µM each time.

With `COc1c(-c2ccccc2)nc2ccc(Oc3ccccc3)nn12`, the TGI with OVCAR-5 ovarian was over 100 µM; with CCRF-CEM leukemia, 99.3 µM; in the experiment with RPMI-8226 leukemia it was over 70.9 µM; with HT29 colon, over 100 µM; in the experiment with SR leukemia it was over 100 µM; in the experiment with LOX IMVI melanoma, over 100 µM. In addition, the TGI in the experiment with SF-295 CNS and with SF-539 CNS was over 100 µM throughout.

Turning to `CCCCCCCCCC[C@H](O)[C@H](O)CC[C@@H](O)[C@H]1CC[C@@H]([C@H]2CC[C@H](CCCCCCC[C@@H](O)CC3=C[C@H](C)OC3=O)O2)O1`, the GI50 is 47.7 µM in the experiment on OVCAR-5 ovarian; 16.6 µM in the experiment with RPMI-8226 leukemia; 2.9 µM in the experiment on LOX IMVI melanoma; 0.416 µM in the experiment on SF-295 CNS; 4.22 µM with T-47D breast; 15.5 µM in the experiment on SF-539 CNS. In addition, the TGI in the experiment with OVCAR-5 ovarian was over 100 µM; in the experiment on RPMI-8226 leukemia it was 50.4 µM; in the experiment with HT29 colon, 5.64 µM; with LOX IMVI melanoma, 3.5 µM and 24.2 µM; in the experiment on SF-295 CNS it was 31.9 µM; with T-47D breast, 42.8 µM. Also, the TGI in the experiment with SF-539 CNS is 40.9 µM.

Consider `Cc1cc(C)c(-c2c(N)cc(Br)cc2Br)c(N)c1`, for which the GI50 in the experiment on OVCAR-5 ovarian is 11.6 µM; in the experiment on RPMI-8226 leukemia it was 5.19 µM; in the experiment with HT29 colon, 3.49 µM; with BT-549 breast, 5.76 µM; in the experiment on LOX IMVI melanoma, 5.21 µM; in the experiment on SF-295 CNS it was 3.16 µM. Moreover, the GI50 in the experiment with T-47D breast was 5.71 µM; in the experiment with SF-539 CNS, 2.94 µM. Also, the TGI in the experiment on OVCAR-5 ovarian turned out to be 25.6 µM; with RPMI-8226 leukemia, 19.6 µM; in the experiment with HT29 colon, 13.1 µM; with BT-549 breast, 18.2 µM; with LOX IMVI melanoma, 18 µM; in the experiment with SF-295 CNS it was 14.8 µM. Further, the TGI came out at 19.3 µM in the experiment with T-47D breast and 9.87 µM in the experiment with SF-539 CNS.

Regarding `CCOc1ccccc1N=Nc1c(-c2ccccc2)nn(C(=O)CC(=O)Nc2cccc(C)c2)c1-c1ccccc1`, the TGI with OVCAR-5 ovarian, with CCRF-CEM leukemia, with RPMI-8226 leukemia, with HT29 colon, with SR leukemia and in the experiment on LOX IMVI melanoma was over 100 µM in each case. In addition, the TGI with SF-295 CNS and in the experiment on SF-539 CNS was over 100 µM each time.

In the case of `CC1=CC(C)(C)NN1C1=NS(=O)(=O)c2ccccc2N1C`, the TGI with OVCAR-5 ovarian, with CCRF-CEM leukemia, in the experiment with HT29 colon, in the experiment with BT-549 breast, with LOX IMVI melanoma and in the experiment with SF-295 CNS was over 100 µM in each case. In addition, the TGI in the experiment on T-47D breast and in the experiment with SF-539 CNS was over 100 µM throughout.

Consider `CC(C)COc1nc2c(c(=O)n(C)c(=O)n2C)n1C`, for which the GI50 with OVCAR-5 ovarian, with CCRF-CEM leukemia, in the experiment on RPMI-8226 leukemia, with SR leukemia, in the experiment on LOX IMVI melanoma and in the experiment on SF-295 CNS was over 100 µM each time. Further, the GI50 in the experiment on T-47D breast and with SF-539 CNS was over 100 µM throughout. Further, the TGI in the experiment with OVCAR-5 ovarian, with CCRF-CEM leukemia, in the experiment with RPMI-8226 leukemia, with SR leukemia, in the experiment with LOX IMVI melanoma and with SF-295 CNS was over 100 µM in each case. For the same compound, the TGI with T-47D breast and in the experiment with SF-539 CNS was over 100 µM each time.
